Reference: patent US20250325687A1, “CONJUGATE COMPRISING TOLL-LIKE RECEPTOR AGONIST” (MABSOFT THERAPEUTICS (SHANGHAI) CO., LTD., priority 2022, published 2025)

Tests used:
Type in all cases: cell-based
[1] = test system: human PBMC (human peripheral blood mononuclear cells); assay: PBMC screening assay: induction of TNF-α production; settings: human PBMC, 24 hours, TNF-α by ELISA; class symbols; read-out: EC50 (μM) TNF-α (hPBMC)
Method: The payload compounds of Formula (II′) were assayed to evaluate the induction of TNF-α production in human PBMC (human peripheral blood mononuclear cells).
Human peripheral blood mononuclear cells (PBMC) were obtained from Allcells. […] PBMC were incubated for 24 hours at 37° C. in a 5% CO2 humidified incubator. The following day PBMC plates were centrifuged at 500×g for 5 minutes and the growth media was removed. 200 μL of compound prepared in growth media at a series of diluted concentrations ranging from 2.54 nM to 50 μM were added to PBMC in duplicate and incubated for 24 hours at 37° C. in a 5% CO2 incubator. Prior to supernatant harvest, cells were spun at 500×g for 5 minutes to remove cell debris. TNF-α activity was assessed in the supernatant by ELISA (Elabscience) per the manufacturer's instructions. Optical density at 450 nm (ELISA) was analyzed using a plate reader.

[2] = biological target: T1, hTLR8 (human Toll-like receptor 8) (Homo sapiens, UniProt Q9NR97); assay: hTLR8 cell assay (HEK-Blue hTLR8 reporter cells); settings: 24 hours, OD 650 nm
T1 construct: host or cells: HEK-Blue hTLR8 (HEK293-derived reporter cells)
T1 sequence (Q9NR97 27-1041): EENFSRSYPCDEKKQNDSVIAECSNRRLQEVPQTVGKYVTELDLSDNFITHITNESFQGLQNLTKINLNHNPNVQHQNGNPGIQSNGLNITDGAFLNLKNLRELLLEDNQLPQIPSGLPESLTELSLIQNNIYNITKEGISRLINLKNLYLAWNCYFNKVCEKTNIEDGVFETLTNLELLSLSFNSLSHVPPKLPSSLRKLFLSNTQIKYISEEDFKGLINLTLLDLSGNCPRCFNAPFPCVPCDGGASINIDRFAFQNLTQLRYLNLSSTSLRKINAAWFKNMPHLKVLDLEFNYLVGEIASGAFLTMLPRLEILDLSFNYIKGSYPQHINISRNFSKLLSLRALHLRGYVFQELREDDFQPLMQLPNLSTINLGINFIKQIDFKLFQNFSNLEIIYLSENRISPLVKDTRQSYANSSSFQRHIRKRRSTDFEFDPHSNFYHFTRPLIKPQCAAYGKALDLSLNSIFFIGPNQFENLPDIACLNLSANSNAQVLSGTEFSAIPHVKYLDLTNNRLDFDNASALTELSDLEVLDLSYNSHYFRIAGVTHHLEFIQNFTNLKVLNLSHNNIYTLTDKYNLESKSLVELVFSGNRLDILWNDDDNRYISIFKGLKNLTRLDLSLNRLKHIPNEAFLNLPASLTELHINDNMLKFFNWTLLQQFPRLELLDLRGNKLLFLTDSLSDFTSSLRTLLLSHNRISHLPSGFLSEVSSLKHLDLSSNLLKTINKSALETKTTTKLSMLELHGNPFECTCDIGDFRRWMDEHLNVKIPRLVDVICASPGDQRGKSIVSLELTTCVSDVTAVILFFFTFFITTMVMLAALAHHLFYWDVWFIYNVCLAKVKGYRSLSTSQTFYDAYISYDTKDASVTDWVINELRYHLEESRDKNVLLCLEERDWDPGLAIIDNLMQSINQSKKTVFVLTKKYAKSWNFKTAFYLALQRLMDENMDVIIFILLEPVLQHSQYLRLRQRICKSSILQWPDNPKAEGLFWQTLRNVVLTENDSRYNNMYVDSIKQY
Method: (§1) The payload compounds of Formula (II′) were assayed to evaluate their agonistic activity on hTLR7 (human Toll-like receptor 7) and hTLR8 (human Toll-like receptor 8). Reporter cells lines (HEK-Blue hTLR7 and HEK-Blue hTLR8) were obtained from InvivoGen. Cells were cryopreserved in liquid nitrogen per supplier's instruction. Upon test, the cells were thawed, passaged and cultured in the growth media of DMEM supplemented with 10% fetal bovine serum, 1×NEAA, 1 mM Pyruvate, 2 mM glutamine, […] in the presence of the following antibiotics, as shown as Table 1. Test compounds (at desired concentrations diluted) were added to the 96-well assay plate, 0.5 μL per well. Reporter cells were harvested from the tissue culture flasks by incubation in PBS at 37° C. for two minutes after the media in the flask is removed and cells rinsed with PBS. Cells were counted and diluted in the HEK-Blue Detection media at 50000 cells/mL and incubated for 24 hours at 37° C., in a 5% CO2 humidified incubator. Then 20 μL of cell supernatant were added to the assay plate containing the 180 µL of QUANTI-Blue, incubated for 1 hour at 37° C. Optical density at 650 nm was analyzed using an Envision (Perkin Elmer) plate reader.

[3] = biological target: T2, hTLR7 (human Toll-like receptor 7) (Homo sapiens, UniProt Q9NYK1); assay: hTLR7 cell assay (HEK-Blue hTLR7 reporter cells); settings: 24 hours, OD 650 nm
T2 construct: host or cells: HEK-Blue hTLR7 (HEK293-derived reporter cells)
T2 sequence (Q9NYK1 27-1049): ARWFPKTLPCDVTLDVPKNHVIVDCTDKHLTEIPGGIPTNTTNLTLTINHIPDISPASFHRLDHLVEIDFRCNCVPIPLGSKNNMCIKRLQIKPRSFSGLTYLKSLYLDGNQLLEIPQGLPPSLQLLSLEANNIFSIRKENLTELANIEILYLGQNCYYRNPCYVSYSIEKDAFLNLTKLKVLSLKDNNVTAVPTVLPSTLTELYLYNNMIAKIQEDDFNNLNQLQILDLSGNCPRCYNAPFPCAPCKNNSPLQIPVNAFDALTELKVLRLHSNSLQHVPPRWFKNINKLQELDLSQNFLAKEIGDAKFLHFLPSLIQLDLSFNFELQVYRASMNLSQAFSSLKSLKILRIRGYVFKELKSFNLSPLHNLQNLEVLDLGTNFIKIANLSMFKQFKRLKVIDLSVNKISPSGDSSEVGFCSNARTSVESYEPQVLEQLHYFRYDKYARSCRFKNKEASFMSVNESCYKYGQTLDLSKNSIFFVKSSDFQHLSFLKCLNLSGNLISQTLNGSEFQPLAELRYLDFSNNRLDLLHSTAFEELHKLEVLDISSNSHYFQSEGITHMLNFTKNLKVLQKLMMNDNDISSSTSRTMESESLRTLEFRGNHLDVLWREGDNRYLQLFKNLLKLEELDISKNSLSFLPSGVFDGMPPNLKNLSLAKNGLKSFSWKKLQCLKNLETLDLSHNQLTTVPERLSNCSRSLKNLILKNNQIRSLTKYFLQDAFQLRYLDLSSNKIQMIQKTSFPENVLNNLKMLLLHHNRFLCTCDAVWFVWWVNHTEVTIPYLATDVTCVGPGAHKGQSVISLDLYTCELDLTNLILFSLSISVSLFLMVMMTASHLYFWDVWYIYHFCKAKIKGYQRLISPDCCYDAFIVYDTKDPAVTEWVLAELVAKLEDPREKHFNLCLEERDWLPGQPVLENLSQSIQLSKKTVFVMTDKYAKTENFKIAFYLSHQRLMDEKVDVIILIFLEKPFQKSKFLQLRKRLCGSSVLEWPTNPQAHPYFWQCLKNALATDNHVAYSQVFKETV
Method: as §1

| EC50 [2] [µM] | EC50 [3] [µM] | SMILES | EC50 [1] [µM] |
| --- | --- | --- | --- |
|  |  | CCOCc1nc2c(N)nc3cc(Cc4ccc(CNC(=O)CO)s4)ccc3c2n1CC(C)(C)O [Compound 169] | > 0.64 |
| > 20 | > 10 | CCOCc1nc2c(N)nc3cc(Cc4ccccc4)ccc3c2n1CC(C)(C)NCCN [Compound 37, N1-(1-(4-amino-7-benzyl-2-(ethoxymethyl)-1H-imidazo[4,5-c]quinolin-1-yl)-2-methylpropan-2-yl)ethane-1,2-diamine] |  |
| < 5 | 1 to 10 | CCCC(C)c1nc2c(N)nc3cc(Cc4ccccc4)ccc3c2n1Cc1ccc(CN)cc1 (stereo not drawn) [Compound 42, 1-(4-(aminomethyl)benzyl)-7-benzyl-2-(pentan-2-yl)-1H-imidazo[4,5-c]quinolin-4-amine] |  |
| > 20 | < 1 | CCOCc1nc2c(N)nc3cc(Cc4ccc(CC(N)=O)cc4)ccc3c2n1CC(C)(C)O [Compound 73, 2-(4-((4-amino-2-(ethoxymethyl)-1-(2-hydroxy-2-methylpropyl)-1H-imidazo[4,5-c]quinolin-7-yl)methyl)phenyl)acetamide] |  |
| > 20 | 1 to 10 | CCOCc1nc2c(N)nc3cc(Cc4ccc(CCN)cc4)ccc3c2n1CC(C)(C)OCCN1CCCC1 [Compound 26, 7-(4-(2-aminoethyl)benzyl)-2-(ethoxymethyl)-1-(2-methyl-2-(2-(pyrrolidin-1-yl)ethoxy)propyl)-1H-imidazo[4,5-c]quinolin-4-amine] |  |
| > 20 | > 10 | CCOCc1nc2c(N)nc3cc(Cc4ccc(C(=O)NCCN)cc4)ccc3c2n1CC(C)(C)O [Compound 6, 4-((4-amino-2-(ethoxymethyl)-1-(2-hydroxy-2-methylpropyl)-1H-imidazo[4,5-c]quinolin-7-yl)methyl)-N-(2-aminoethyl)benzamide] |  |
| < 5 | > 10 | CCCC(C)c1nc2c(N)nc3cc(Cc4ccccc4)ccc3c2n1CC(C)(C)OCCN (racemic) [Compound 28, 1-(2-(2-aminoethoxy)-2-methylpropyl)-7-benzyl-2-(pentan-2-yl)-1H-imidazo[4,5-c]quinolin-4-amine] |  |
| > 20 | > 10 | CCOCc1nc2c(N)nc3cc(Cc4ccc(CCN)cc4)ccc3c2n1CCNS(C)(=O)=O [Compound 34, N-(2-(4-amino-7-(4-(2-aminoethyl)benzyl)-2-(ethoxymethyl)-1H-imidazo[4,5-c]quinolin-1-yl)ethyl)methanesulfonamide] |  |
| > 20 | > 10 | CCC[C@H](C)c1nc2c(N)nc3cc(Cc4ccccc4)ccc3c2n1CC(C)(C)OCCN [Compound 29, (S)-1-(2-(2-aminoethoxy)-2-methylpropyl)-7-benzyl-2-(pentan-2-yl)-1H-imidazo[4,5-c]quinolin-4-amine] |  |
| > 20 | 1 to 10 | CCOCc1nc2c(N)nc3cc(Cc4ccc(CCN)cc4)ccc3c2n1CC(C)(C)OCCNC(=O)C(C)C [Compound 22, N-(2-((1-(4-amino-7-(4-(2-aminoethyl)benzyl)-2-(ethoxymethyl)-1H-imidazo[4,5-c]quinolin-1-yl)-2-methylpropan-2-yl)oxy)ethyl)isobutyramide] |  |
| < 5 | 1 to 10 | CCCC(C)c1nc2c(N)nc3cc(Cc4cccc(CCN)c4)ccc3c2n1CC(C)(C)O (stereo not drawn) [Compound 13, 1-(4-amino-7-(3-(2-aminoethyl)benzyl)-2-(pentan-2-yl)-1H-imidazo[4,5-c]quinolin-1-yl)-2-methylpropan-2-ol] |  |
| 5 to 20 | > 10 | CCOCc1nc2c(N)nc3cc(Cc4ccc(CCN)cc4)ccc3c2n1C[C@@H]1[C@@H](CO)C1(F)F [Compound 49, ((1S,3S)-3-((4-amino-7-(4-(2-aminoethyl)benzyl)-2-(ethoxymethyl)-1H-imidazo[4,5-c]quinolin-1-yl)methyl)-2,2-difluorocyclopropyl)methanol] |  |
| 5 to 20 | 1 to 10 | CCOCc1nc2c(N)nc3cc(Cc4ccccc4)ccc3c2n1CC(C)(C)OCCCN [Compound 33] |  |
| > 20 | > 10 | CCOCc1nc2c(N)nc3cc(Cc4ccccc4)ccc3c2n1CC(C)(C)NCCCN [Compound 36, NJ-(1-(4-amino-7-benzyl-2-(ethoxymethyl)-1H-imidazo[4,5-c]quinolin-1-yl)-2-methylpropan-2-yl)propane-1,3-diamine] |  |
| 5 to 20 | 1 to 10 | CCCC(C)c1nc2c(N)nc3cc(Cc4ccc(CCN)cc4)ccc3c2n1Cc1ccccc1 (stereo not drawn) [Compound 41, 7-(4-(2-aminoethyl)benzyl)-1-benzyl-2-(pentan-2-yl)-1H-imidazo[4,5-c]quinolin-4-amine] |  |
| > 20 | > 10 | CCOCc1nc2c(N)nc3cc(Cc4ccc(CCN(C)C)cc4)ccc3c2n1CC(C)(C)OCCN [Compound 24, 1-(2-(2-aminoethoxy)-2-methylpropyl)-7-(4-(2-(dimethylamino)ethyl)benzyl)-2-(ethoxymethyl)-1H-imidazo[4,5-c]quinolin-4-amine] |  |
| 5 to 20 | > 10 | CCOCc1nc2c(N)nc3cc(Cc4ccc(NC(=O)NCCN)cc4)ccc3c2n1CC(C)(C)O [Compound 7, 1-(4-((4-amino-2-(ethoxymethyl)-1-(2-hydroxy-2-methylpropyl)-1H-imidazo[4,5-c]quinolin-7-yl)methyl)phenyl)-3-(2-aminoethyl)urea] |  |
